# Patent publication US11571454B2, “Anticancer peptides that synergistically enhance chemotherapeutic potency” (The Penn State Research Foundation, priority 2017, dated 2023)
# Marks after values point to notes of the source that are not given here.
# Key:
# [1] = system: OVCAR-3 ovarian carcinoma cells
# E. coli = settings: 24 hours, Gram Negative
# [2] = system: human umbilical vein endothelial cells (HUVEC); settings: read-out: Healthy (IC50, μM) HUVEC; 48 hours treatment, MTT
# M. tuberculosis = settings: 24 hours, Mycobacteria
# [3] = system: non-cancerous cell lines HUVEC and NL20; experiment: MTT cytotoxicity, non-cancerous control cell lines; type: cell-based, human
# Method: (§1) All cells were cultured using standard culture conditions at 37° C., 5% CO2, and 95% humidity. A549 (CCL-185), OVCAR-3 (HTB-161), T24 (HTB-4), and NCI/ADR-RES were cultured in RPMI-1640 supplemented with 10% v/v fetal bovine serum (FBS), 2 mM L-glutamine (L-Gln), 10,000 units penicillin/mL, 10 mg/mL streptomycin, and 25 μg/mL amphotericin B. HUVEC (PCS-100-010) cells were cultured in Vascular Cell Basal Media (PCS-100-030) supplemented with an Endothelial Cell Growth Kit-VEGF (PCS-100-041) and 10 μg/mL gentamycin in culture flasks coated with 0.1% gelatin by incubating at 37° C. for 15 min. NL20 (CRL-2503) cells were cultured in Ham's F12 supplemented with 1.5 g/L sodium bicarbonate, 2.7 g/L glucose, 2.0 mM L-glutamine, 0.1 mM nonessential amino acids, 0.005 mg/ml insulin, 10 ng/ml epidermal growth factor, 0.001 mg/ml transferrin, 500 ng/ml hydrocortisone and 4% fetal bovine serum, as advised by American Type Culture Collection (ATCC).
# (§2) Viability was calculated by comparing to an untreated control.
# (§3) All experiments were performed with n>6.
# OVCAR-3 cells [4] = experiment: TMRE-staining flow cytometry (mitochondrial transmembrane potential); type: cell-based, human; settings: 48 hour incubation, varying concentrations
# Method: (5 μM). Cells were incubated for 30 min. with 200 nM TMRE, washed twice with PBS, and analyzed for fluorescence by flow cytometry on a BD […] (BD Biosciences, Franklin Lakes, N.J.).
# [5] = system: human lung epithelium (NL20); settings: read-out: Healthy (IC50, μM) NL20; 48 hours treatment, MTT
# B. subtilis (168) = settings: 24 hours, Gram Positive
# MR S. aureus = settings: 24 hours, Gram Positive
# [6] = system: cleaved caspase 3 in OVCAR-3 cells; experiment: Western blot of cleaved caspase 3; type: cell-based, human; settings: 1× and 2× IC50; activation at 48 hours
# Method: For western blots, OVCAR-3 cells were first seeded at 2.5×10^5 cells/well in a 6 well plate and allowed to adhere overnight. Cells were then treated in 5% FBS media with 1×IC50 and 2×IC50, with untreated controls of media alone. Following 2 or 48 hours of treatment, the whole-cell protein lysates were prepared in RIPA buffer (50 mM Tris.NaOH at pH 7.4, 150 mM NaCl, 1% IGEPAL-CA630 [octylphenoxy poly(ethyleneoxy)ethanol], 0.5% sodium deoxycholate, 0.1% SDS, 2 mM EDTA, protease/phosphatase inhibitors) by first scraping the bottom of the well and subsequently briefly sonicated. The lysates were centrifuged to clear cellular debris, separated by 12% SDS-PAGE, and transferred to a 0.2 μm Nitrocellulose Membrane using the Bio-Rad Trans-Blot Turbo transfer machine (Bio-Rad, Hercules, Calif., USA) according to the manufacturer's protocols. The blot was incubated in 5% Immunoanalytical Grade Non-fat Dry Milk for 1 hour, followed by incubation with antibodies against cleaved caspase-3 (1:1000) or actin (1:1000) at 4° C. for 16 hours. The blots were then incubated with 1:2000 dilution in 1×BSA of anti-mouse or anti-rabbit antibodies for 1 hour before washing with TBST three times for 15 min. and developing using Pierce ECL system according to the manufacturer's protocol.
# OVCAR-3 cells [7] = settings: read-out: IC50, nuclei-counting assay; OVCAR-3, Hoechst nuclei counting
# [8] = system: A549 (lung carcinoma) cells; experiment: MTT cytotoxicity assay, A549; type: cell-based, human
# Method: as §1, §2, §3
# Cell viability experiments were completed n>6 in two independent experiments and analyzed using GraphPad Prism 8 to fit curves and calculate IC50 values using inhibitor vs. normalized response non-linear regression model. IC50 values are reported as mean values±standard deviation. […] Pore size frequency distribution was completed by ImageJ FIJI on 4 independent cells and n=30 pores from SEM images. UV-Vis OD600 and CD spectra are means of 5 and 3 replicates, respectively and reported as mean±standard deviation. Individual UV-Vis and CD spectra, as well as fluorescent confocal and TEM micrographs, shown are representative plots from three individual experiments. CD data is with a variance in ellipticity of 0.2 millidegrees at each wavelength. Relative fluorescence data calculated from fluorescent confocal images represents the average of 10 independent measurements±standard deviation. For spheroid volume analysis, a Kruskal-Wallis test and Dunn's multiple comparisons test was performed using GraphPad Prism 8.
# [9] = system: T24 (urinary bladder transitional cell carcinoma) cells; experiment: MTT cytotoxicity assay, T24
# P. aeruginosa = settings: 24 hours, Gram Negative
substance,measurement,setting,value
H-KRWHWWRRHWVVW-NH2 [MAD1],Therapeutic Index OVCAR-3,[1]; IC50-HUVEC/IC50-OVCAR-3,7
same,IC50,"[1]; read-out: Cancerous (IC50, μM) OVCAR-3, 48 hours treatment, MTT",14.2 µM
same,MIC (μM) E. coli,E. coli,25 µM
same,IC50,[2],> 100 µM
same,MIC (μM) M. tuberculosis,M. tuberculosis,2.5 µM
same,toxicity towards non-cancerous control cell lines,[3],well tolerated
same,mitochondrial integrity (TMRE fluorescence),OVCAR-3 cells [4],generally unchanged
same,IC50,[5],76.9 µM
same,MIC (μM) B. subtilis (168),B. subtilis (168),0.2 µM
same,MIC (μM) MR S. aureus,MR S. aureus,>80^a μM
same,cleaved caspase 3 (western blot),[6],presence of cleaved caspase 3
same,IC50,OVCAR-3 cells [7],3.3 µM
same,IC50,"[8]; 48 hours treatment, MTT, read-out: Cancerous (IC50, μM) A549",36.2 µM
same,Therapeutic Index A549,[8]; IC50-HUVEC/IC50-A549,2.8
same,cytotoxic activity against A549,[8]; result in words,moderate activity
same,IC50,"[9]; read-out: Cancerous (IC50, μM) T24, 48 hours treatment, MTT",> 100 µM
same,cytotoxic activity towards T24,[9]; result in words,inactive
same,MIC (μM) P. aeruginosa,P. aeruginosa,50^a μM
